Here are results for 14 compounds from PMC12081497, “Design, synthesis, and anti-breast cancer activity evaluation of novel 3-cyanopyridine derivatives as PIM-1 inhibitors” (Molecular Diversity, 2024).

The test system of data set [1] is MCF-7 human cancer cell line. In words: In vitro anti-proliferative MTT assay. The class given is cell-based. Particulars: MTT, MCF-7, 48 h treatment, read-out: Cytotoxicity IC50, SD (±), MCF7. As to the method:
In the present study, all synthesized cyanopyridine hybrids were subjected to in vitro cytotoxicity testing using the MTT assay method against MCF-7 human cancer.
All cell lines were maintained in RPMI1640 medium containing 10% FBS at 37 °C in 5% CO2 humidified incubator. Cell proliferation assay was determined by the MTT (3-[4,5-dimethyl-2-thiazolyl]-2,5- diphenyl-2H-tetrazolium bromide) method. Briefly, cells were plated in triplicate wells (3–5 × 10^4 cells/well) of 96-well flat-bottomed plates and incubated overnight prior to drug exposure and then treated with different concentrations of the tested compounds for 48 h. After that, 20 μL of MTT reagent at a final concentration of 0.5 mg/mL was added to each well. Cells were then incubated for 2 h with MTT, after which 100 μL of DMSO solution was added to dissolve the formazan salt resulting from the reduction of MTT and the absorbance was read at 570 nm using an automatic plate reader. The IC50 values were calculated according to inhibition ratios from three independent experiments.
A general note: Formazan colour is commonly taken as a measure of viable cells.

Data set [2] addresses T1, PIM-1 kinase (Homo sapiens, UniProt P11309).
T1 construct: purchased Promega V4032
Particulars: cited from earlier work.

Data set [3] addresses T1, PIM-1 kinase. In words: PIM-1 kinase inhibition assay (Promega PIM-1 kinase assay kit, ADP-Glo). The class given is biochemical. Particulars: concentrations 10, 1, 0.1 and 0.01 µM, read-out: PIM1-Kinase IC50.
Data set [4] relates to MCF-7 cells. In words: Flow cytometric cell cycle analysis. The class given is cell-based, human. Particulars: for Cell cycle comment (phase of arrest): MCF-7, 24 h. As to the method: The cell cycle encompasses four distinct phases: G1 phase, S phase (synthesis), G2 phase, and M phase. During G1, cellular amplification and preparation for DNA replication take place. The S phase involves DNA replication and chromatid duplication. In the G2 phase, DNA repair and further growth occur. The M phase is characterized by nuclear division. The investigation of the impact of compound 7h on cell cycle progression and the induction of apoptosis in MCF-7 cells. […] Subsequently, the cells were stained with PI/Annexin V and analyzed using flow cytometry (BD FASCCalibur). Upon analyzing the results (Table 3, Fig. 6), it was evident that the percentage of cell accumulation in the S phase increased in MCF-7 cells treated with compound 7h after 24 h of incubation.
Cell cycle analysis MCF-7 cell was seeded into six-well plates at a density of 2 × 10^5 cell per well and incubated for 24 h. The cell was cultured in RPMI 1640 supplemented with fetal bovine serum (FBS, 10%) and incubated at 37 °C and 5% CO2. The medium was removed and replaced with medium (final DMSO concentration, 1% v/v) containing compound 7h (0.283 µM). After incubation for 24 h and 48 h, the cell layer was trypsinized and washed with cold phosphate buffered saline (PBS) and fixed with 70% ethanol. The fixed cells were rinsed with PBS and then stained with the DNA fluorochrome PI in a solution containing Triton X-100 as well as RNase, keep 15 min at 37 °C according to the instruction manual. Then the samples were analyzed with a FACS Caliber flow cytometer (Becton Dickinson & Co., Franklin Lakes, NJ). The number of cells analyzed for each sample was 10,000 [39].
In general terms: Flow cytometry measures light scatter and fluorescence of single cells or particles in a stream.

Data set [5] has as its system MCF-7 cells. In words: Apoptosis assay, Annexin V/PI flow cytometry. The class given is cell-based, human. Particulars: MCF-7, 24 h. As to the method: Compound 7h was chosen to investigate its abilities in inducing cancer cell apoptosis. Cell cycle analysis of MCF-7 after treatment with compound 7h. To corroborate the ability of the compound to induce apoptosis, cells were stained with Annexin V/PI, incubated for 24 h, and analyzed.
The MCF-7 was treated with compound 7h for 24 h. After treatment, the cells were suspended in 0.5 mL of PBS, collected by centrifugation, and fixed in ice-cold 70% (v/ v) ethanol, centrifuged the ethanol-suspended cells for 5 min, suspended in 5 mL PBS and centrifuged for 5 min, re-suspended with 1 mL PI staining solution (0.1 mg/ml RNase) + PE Annexin V (component no. 51-65875X) and kept in dark at 37 °C for 10 min, finally analyzed by flow cytometry using FACS caliber (Becton Dickinson). The cell cycle distributions were calculated using Phoenix Flow Systems and Verity Software House.

“Also recorded” adds a separate entry of the source. Read-outs that look alike come from different tables or passages of the source.

T1 sequence (P11309 whole entry): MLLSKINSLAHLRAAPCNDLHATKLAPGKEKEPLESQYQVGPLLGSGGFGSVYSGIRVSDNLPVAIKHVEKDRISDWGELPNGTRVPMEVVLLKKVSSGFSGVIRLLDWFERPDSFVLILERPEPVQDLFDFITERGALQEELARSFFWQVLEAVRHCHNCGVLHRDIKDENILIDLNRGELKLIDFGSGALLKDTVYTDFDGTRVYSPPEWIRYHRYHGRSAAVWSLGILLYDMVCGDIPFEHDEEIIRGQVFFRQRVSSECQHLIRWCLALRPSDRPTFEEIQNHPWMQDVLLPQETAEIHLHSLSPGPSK

For `COc1ccc(-c2cc(-c3ccc(OCC(=O)Nc4ccccc4)c(OC)c3)c(C#N)c(OC)n2)cc1` [8c, 2-(4-(3-Cyano-2-methoxy-6-(4-methoxyphenyl)pyridin-4-yl)-2-methoxyphenoxy)-N-phenylacetamide], the melting point was 188 to 190 °C. In addition, the IC50 in data set [1] (Homo sapiens, MCF7, 48 h) was 3.74 ± 0.15 µM. In addition, in data set [1], the IC50 amounted to 3.75 ± 0.15 µM.
In turn, `COc1cc(-c2cc(-c3ccc4ccccc4c3)n(C)c(=O)c2C#N)ccc1OCC(=O)Nc1ccccc1` [9f, 2-(4-(3-Cyano-1-methyl-6-(naphthalen-2-yl)-2-oxo-1,2-dihydropyridin-4-yl)-2-methoxyphenoxy)-N-phenylacetamide] gave a melting point of 193 to 195 °C. The IC50 in data set [1] (Homo sapiens, MCF7, 48 h) was 41.4 ± 1.7 µM.
The matching figures for `COc1cc(-c2cc(-c3ccc4ccccc4c3)[nH]c(=O)c2C#N)ccc1OCC(=O)Nc1ccccc1` [7j, 2-(4-(3-Cyano-6-(naphthalen-2-yl)-2-oxo-1,2-dihydropyridin-4-yl)-2-methoxyphenoxy)-N-phenylacetamide]: greater than 300 °C and 20.1 ± 0.83 µM.
Turning to `COc1cc(-c2cc(-c3cccs3)[nH]c(=O)c2C#N)ccc1OCC(=O)Nc1ccccc1` [7g, 2-(4-(3-Cyano-2-oxo-6-(thiophen-2-yl)-1,2-dihydropyridin-4-yl)-2-methoxyphenoxy)-N-phenylacetamide], the melting point was in the range of 293 to 295 °C. Also, the IC50 in data set [1] (Homo sapiens, MCF7, 48 h) came out at 1.92 ± 0.08 µM. Further, the concentration for half-maximal inhibition (IC50) in data set [1] stood at 1.93 ± 0.08 µM.
Compound `COc1cccc(-c2cc(-c3ccc(OCC(=O)Nc4ccccc4)c(OC)c3)c(C#N)c(OC)n2)c1` [8b, 2-(4-(3-Cyano-2-methoxy-6-(3-methoxyphenyl)-pyridin-4-yl)-2-methoxy-phenoxy)-N-phenylacetamide] had a melting point of 158 to 160 °C. Moreover, the IC50 in data set [1] (Homo sapiens, MCF7, 48 h) came to 36.2 ± 1.49 µM.
Consider `COc1nc(-c2ccc(OCc3ccccc3)cc2)cc(-c2ccc(N(C)C)cc2)c1C#N` [F], for which the IC50 on PIM-1 kinase [2] was 0.13 µM.
As for `COc1cc(-c2cc(-c3cccnc3)[nH]c(=O)c2C#N)ccc1OCC(=O)Nc1ccccc1` [7h, 2-(4-(3-Cyano-2-oxo-6-(pyridin-3-yl)-1,2-dihydropyridin-4-yl)-2-methoxyphenoxy)-N-phenylacetamide], the melting point was 295 to 297 °C. Moreover, the IC50 at PIM-1 kinase [3] is 0.281 ± 0.012 µM. Besides, the “Cell cycle comment (phase of arrest)” value in the data set with MCF-7 cells [4] was “arrested the tumor cells at the S phase; also recorded: cell cycle arrest at the S phase”. In addition, the “Cell cycle comment (phase of arrest)” value with MCF-7 cells [4] (listed as 7 h) is given as “Cell growth arrest@ S”. The “DNA content %G2/M” value in the data set on MCF-7 cells [4] (MCF-7, IC50 concentration of 7h, 24 h, control 13.14) was determined as 12.11%. In addition, the “DNA content %S” value in the data set with MCF-7 cells [4] (MCF-7, IC50 concentration of 7h, 24 h, control 25.83) was 33.61%. Further, the “DNA content %G0-G1” value with MCF-7 cells [4] (MCF-7, IC50 concentration of 7h, 24 h, control 61.03) was 54.28%. Further, the 50% inhibitory concentration (IC50) in data set [1] (Homo sapiens, MCF7, 48 h) stood at 1.89 µM. The IC50 in data set [1] was 1.89 ± 0.08 µM. Besides, the “Apoptosis Late” value in the data set on MCF-7 cells [5] (control 0.27) is 22.81%. Moreover, the “Apoptosis Early” value in the data set with MCF-7 cells [5] (control 0.41) came to 15.42%. In addition, the Necrosis with MCF-7 cells [5] (control 1.61) worked out at 3.95%. Also, the “Apoptosis Total” value with MCF-7 cells [5] (control 2.29) is on record as 42.18%.
For the compound `COc1cc(-c2cc(-c3ccc[n+](C)c3)nc(OC)c2C#N)ccc1OCC(=O)Nc1ccccc1.[I-]` [compound 10, 5-cyano-6-methoxy-4-(3-methoxy-4-(2-oxo-2-(phenylamino)ethoxy)phenyl)-1'-methyl-2,3'-bipyridin-1'-iumiodide], the melting point was 284 to 286 °C. Besides, the IC50 in data set [1] (Homo sapiens, MCF7, 48 h) was 2.13 ± 0.09 µM. The IC50 in data set [1] stood at 2.14 ± 0.09 µM.
The compound `COc1cc(-c2cc(-c3ccco3)nc(OC)c2C#N)ccc1OCC(=O)Nc1ccccc1` [8g, 2-(4-(3-Cyano-6-(furan-2-yl)-2-methoxypyridin-4-yl)-2-methoxyphenoxy)-N-phenyl acetamide] showed a melting point of 178 to 180 °C. Besides, the IC50 in data set [1] (Homo sapiens, MCF7, 48 h) is 21.3 ± 0.87 µM.
The compound `COc1ccc(-c2cc(-c3ccc(OCC(=O)Nc4ccccc4)c(OC)c3)c(C#N)c(=O)[nH]2)cc1` [7c, 2-(4-(3-Cyano-6-(4-methoxyphenyl)-2-oxo-1,2-dihydropyridin-4-yl)-2-methoxyphenoxy)-N-phenylacetamide] registered a melting point of 284 to 286 °C. Further, in data set [1] (Homo sapiens, MCF7, 48 h), the IC50 came out at 7.72 ± 1.69 µM. In data set [1], the IC50 was 7.73 ± 0.32 µM.
The matching figures for `COc1cc(-c2cc(-c3ccccc3)[nH]c(=O)c2C#N)ccc1OCC(=O)Nc1ccccc1` [7a, 2-(4-(3-Cyano-2-oxo-6-phenyl-1,2-dihydropyridin-4-yl)-2-methoxyphenoxy)-Nphenylacetamide]: 276 to 278 °C, 8.06 ± 0.33 µM and 8.06 ± 0.33 µM.
`COc1cc(-c2cc(-c3ccco3)n(C)c(=O)c2C#N)ccc1OCC(=O)Nc1ccccc1` [9g, 2-(4-(3-Cyano-6-(furan-2-yl)-1-methyl-2-oxo-1,2-dihydropyridin-4-yl)-2-methoxyphenoxy)-N-phenylacetamide] had a melting point of 170 to 172 °C. Also, the half-maximal inhibitory concentration (IC50) in data set [1] (Homo sapiens, MCF7, 48 h) amounted to 13.2 ± 0.54 µM.
The matching figures for `COc1cc(-c2cc(-c3ccc(Cl)cc3)[nH]c(=O)c2C#N)ccc1OCC(=O)Nc1ccccc1` [7d, 2-(4-(6-(4-Chlorophenyl)-3-cyano-2-oxo-1,2-dihydropyridin-4-yl)-2methoxyphenoxy)-N-phenylacetamide]: 276 to 278 °C and 41.1 ± 1.69 µM.
Consider `N#CC1=C(c2cc3ccccc3nc2Cl)C=C(c2ccc(Br)cc2)NC1Cl` (stereo not drawn) [C], for which the concentration for half-maximal inhibition (IC50) at PIM-1 kinase [2] is 0.46 µM.

By melting point is commonly meant the temperature of the solid-liquid transition. What is called IC50 is the concentration that inhibits the measured activity by half.
